Reference: ChEMBL document CHEMBL4613206, “Recent applications of hydantoin and thiohydantoin in medicinal chemistry” (Eur J Med Chem, 2019)
Converted amounts (≈) assume the structure as drawn.

Tests used:
HEp-2 = test: Cytotoxicity against human Hep2 cells assessed as reduction in cell viability by MTT assay; format: functional, cell-based
Mus musculus [1] = test: Anti-inflammatory activity in xylene-induced Kunming mouse assessed as inhibition of ear edema administered as po dose 1 hr before xylene administration and measured after 1 hr xylene administration relative to control; format: functional; design: scale not given: the % may be the effect or the level left
Mus musculus [2] = test: Antitussive activity in ammonia aerosol-stimulated Kunming mouse assessed as inhibition of number of cough administered as po dose 1 hr before ammonia aerosol stimulation (reference value: 42); format: functional
Tyrosinase = target: T1, Tyrosinase (Homo sapiens, UniProt P14679); test: Inhibition of tyrosinase (unknown origin)
T1 sequence (P14679 whole entry): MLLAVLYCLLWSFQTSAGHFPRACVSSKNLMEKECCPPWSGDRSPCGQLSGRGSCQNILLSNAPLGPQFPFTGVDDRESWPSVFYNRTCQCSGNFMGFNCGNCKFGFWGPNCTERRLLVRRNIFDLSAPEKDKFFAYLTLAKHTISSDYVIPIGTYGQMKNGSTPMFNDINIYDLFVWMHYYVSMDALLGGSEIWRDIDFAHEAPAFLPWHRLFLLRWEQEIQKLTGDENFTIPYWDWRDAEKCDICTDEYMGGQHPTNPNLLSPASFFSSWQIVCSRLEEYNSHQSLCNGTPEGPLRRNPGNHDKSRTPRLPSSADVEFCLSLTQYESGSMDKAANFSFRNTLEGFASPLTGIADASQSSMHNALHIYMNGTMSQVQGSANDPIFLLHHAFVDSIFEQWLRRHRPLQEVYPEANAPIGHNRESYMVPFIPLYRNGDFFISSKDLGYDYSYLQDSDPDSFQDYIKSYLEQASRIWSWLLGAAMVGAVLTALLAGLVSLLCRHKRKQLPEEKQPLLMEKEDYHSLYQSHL

Staphylococcus aureus [3] = test: Antibacterial activity against Staphylococcus aureus; format: functional
Escherichia coli [4] = test: Antibacterial activity against Escherichia coli; format: functional
Escherichia coli [5] = test: Antibacterial activity against Escherichia coli ATCC 25922; format: functional
Pseudomonas aeruginosa [6] = test: Antibacterial activity against Pseudomonas aeruginosa ATCC 27853; format: functional
Enterococcus faecalis [7] = test: Antibacterial activity against Enterococcus faecalis ATCC 29212; format: functional
Staphylococcus aureus [8] = test: Antibacterial activity against Staphylococcus aureus ATCC 25923; format: functional
Staphylococcus aureus [9] = test: Antibacterial activity against methicillin resistant Staphylococcus aureus ATCC 43300; format: functional
[10] = target: T2, NAD-dependent protein deacetylase sirtuin-1 (Homo sapiens, UniProt Q96EB6); test: Inhibition of recombinant human SIRT1 after 30 mins
T2 sequence (Q96EB6 whole entry): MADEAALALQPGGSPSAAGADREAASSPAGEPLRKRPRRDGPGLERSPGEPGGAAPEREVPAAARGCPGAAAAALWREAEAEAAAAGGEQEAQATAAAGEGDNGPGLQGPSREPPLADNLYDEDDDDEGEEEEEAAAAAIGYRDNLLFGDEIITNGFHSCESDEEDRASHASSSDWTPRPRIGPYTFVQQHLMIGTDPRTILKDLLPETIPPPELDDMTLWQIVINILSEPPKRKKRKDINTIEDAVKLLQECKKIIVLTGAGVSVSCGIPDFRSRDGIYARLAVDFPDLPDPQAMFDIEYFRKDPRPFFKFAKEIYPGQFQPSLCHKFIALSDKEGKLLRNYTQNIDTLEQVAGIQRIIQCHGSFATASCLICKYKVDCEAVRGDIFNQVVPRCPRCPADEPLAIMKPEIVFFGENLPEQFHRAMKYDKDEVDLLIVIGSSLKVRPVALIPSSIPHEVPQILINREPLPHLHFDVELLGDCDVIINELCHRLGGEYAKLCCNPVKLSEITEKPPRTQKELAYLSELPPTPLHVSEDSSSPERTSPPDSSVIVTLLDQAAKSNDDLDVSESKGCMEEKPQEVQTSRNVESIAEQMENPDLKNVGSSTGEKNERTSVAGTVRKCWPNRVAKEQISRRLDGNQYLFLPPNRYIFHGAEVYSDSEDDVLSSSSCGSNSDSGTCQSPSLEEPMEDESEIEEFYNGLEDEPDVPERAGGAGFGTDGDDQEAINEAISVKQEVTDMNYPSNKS

[11] = target: T3, NAD-dependent protein deacetylase sirtuin-2 (Homo sapiens, UniProt Q8IXJ6); test: Inhibition of recombinant human SIRT2 after 30 mins
T3 sequence (Q8IXJ6 whole entry): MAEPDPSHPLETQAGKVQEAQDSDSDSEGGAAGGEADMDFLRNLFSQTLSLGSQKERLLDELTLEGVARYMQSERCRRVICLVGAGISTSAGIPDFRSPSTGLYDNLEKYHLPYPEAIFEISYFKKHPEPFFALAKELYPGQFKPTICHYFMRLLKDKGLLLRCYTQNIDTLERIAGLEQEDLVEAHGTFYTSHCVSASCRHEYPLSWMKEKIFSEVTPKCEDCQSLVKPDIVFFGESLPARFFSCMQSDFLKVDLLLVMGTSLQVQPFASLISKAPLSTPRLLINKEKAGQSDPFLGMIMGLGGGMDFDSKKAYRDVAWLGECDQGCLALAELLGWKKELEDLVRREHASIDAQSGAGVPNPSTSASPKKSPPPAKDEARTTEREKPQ

Staphylococcus aureus [12] = test: Antibacterial activity against methicillin resistant Staphylococcus aureus; format: functional
[13] = test system: Staphylococcus epidermidis; test: Antibacterial activity against methicillin resistant Staphylococcus epidermidis; format: functional
Pseudomonas aeruginosa [14] = test: Antibacterial activity against Pseudomonas aeruginosa; format: functional
Klebsiella pneumoniae = test: Antibacterial activity against Klebsiella pneumoniae; format: functional
Enterococcus faecalis [15] = test: Antibacterial activity against Enterococcus faecalis; format: functional

CC(C)CC1NC(=O)N(OCc2cccc(Cl)c2)C1=O (stereo unspecified)
IC50 (HEp-2): 0.04 µM

CC(C)Cc1ccc(C(C)C(=O)N2C(=O)N(C)C(C)(C)C2=O)cc1 (stereo unspecified)
Activity (Mus musculus [1]): 25% | Number of coughs (Mus musculus [2]): 18.6

COc1ccccc1N1CCN(CCCCN2C(=O)N(C)C(=O)C2(c2ccccc2)c2ccccc2)CC1
IC50 (Tyrosinase): 7.36 µM

CC(C)Cc1ccc(C(C)C(=O)N2C(=O)CN(C)C2=O)cc1 (stereo unspecified)
Activity (Mus musculus [1]): 54.61% | Number of coughs (Mus musculus [2]): 15.5

O=C1NC(CN2CCCC2)C(=O)N1c1c(Cl)cccc1Cl (stereo unspecified)
MIC (Staphylococcus aureus [3]): 0.044 µM (≈ 0.0144 µg/mL) | MIC (Escherichia coli [4]): 0.088 µM

O=C1CN(/N=C2\C(=O)N(Cc3ccccc3F)c3ccccc32)C(=O)N1
MIC (Escherichia coli [5]): 6.25 to 12.5 µg/mL (≈ 17.7 to 35.5 µM) | MIC (Pseudomonas aeruginosa [6]): 12.5 µg/mL (≈ 35.5 µM) | MIC (Enterococcus faecalis [7]): 12.5 µg/mL (≈ 35.5 µM) | MIC (Staphylococcus aureus [8]): 6.25 µg/mL (≈ 17.7 µM) | MIC (Staphylococcus aureus [9]): 6.25 µg/mL (≈ 17.7 µM)

CC(C)C1NC(=O)N(OCc2cccc(Cl)c2)C1=O (stereo unspecified)
IC50 (HEp-2): 0.07 µM

O=C1N/C(=C\c2ccc(O)c(Cl)c2)C(=O)N1Cc1ccc(F)cc1
IC50 [10]: 32.1 µM | IC50 [11]: 37.7 µM

COC(=O)CN1C(=O)N(CCCCN2CCN(c3ccccc3OC)CC2)C(c2ccccc2)(c2ccccc2)C1=O
IC50 (Tyrosinase): 1.07 µM

O=C1N/C(=C\c2ccc(N3CCCC3)cc2)C(=O)N1Cc1ccc(Cl)cc1
IC50 [10]: 38.6 µM | IC50 [11]: 38.8 µM

O=C1CN(/N=C2\C(=O)N(Cc3ccc(F)cc3)c3ccccc32)C(=O)N1
MIC (Escherichia coli [5]): 6.25 to 12.5 µg/mL (≈ 17.7 to 35.5 µM) | MIC (Pseudomonas aeruginosa [6]): 12.5 µg/mL (≈ 35.5 µM) | MIC (Enterococcus faecalis [7]): 12.5 µg/mL (≈ 35.5 µM) | MIC (Staphylococcus aureus [8]): 6.25 µg/mL (≈ 17.7 µM) | MIC (Staphylococcus aureus [9]): 6.25 µg/mL (≈ 17.7 µM)

CCCCCCCCCCCC(=O)N[C@@H](CCCCN)CN1CC(=O)N(c2cccc(Cl)c2)C1=O
MIC (Escherichia coli [4]): 1 µg/mL | MIC (Staphylococcus aureus [12]): 0.5 µg/mL (≈ 0.986 µM) | MIC [13]: 0.5 µg/mL (≈ 0.986 µM) | MIC (Pseudomonas aeruginosa [14]): 1 µg/mL (≈ 1.97 µM) | MIC (Klebsiella pneumoniae): 0.78 µg/mL (≈ 1.54 µM) | MIC (Enterococcus faecalis [15]): 0.5 µg/mL (≈ 0.986 µM)

CC(C)CC1NC(=O)N(OCc2ccc(Br)cc2)C1=O (stereo unspecified)
IC50 (HEp-2): 0.15 µM

CCN(CC)c1ccc(/C=C2\NC(=O)N(Cc3ccc(C)cc3)C2=O)cc1
IC50 [10]: 94 µM | IC50 [11]: 68.7 µM

CC(C)Cc1ccc(C(C)C(=O)N2C(=O)CNC2=O)cc1 (stereo unspecified)
Activity (Mus musculus [1]): 24.51% | Number of coughs (Mus musculus [2]): 18.3

CC(C)Cc1ccc(C(C)C(=O)O)cc1 (stereo unspecified) [IBUPROFEN]
Activity (Mus musculus [1]): 28.07%

O=C1CN(/N=C2\C(=O)N(Cc3cccc(F)c3)c3ccccc32)C(=O)N1
MIC (Escherichia coli [5]): 6.25 to 12.5 µg/mL (≈ 17.7 to 35.5 µM) | MIC (Pseudomonas aeruginosa [6]): 12.5 µg/mL (≈ 35.5 µM) | MIC (Enterococcus faecalis [7]): 12.5 µg/mL (≈ 35.5 µM) | MIC (Staphylococcus aureus [8]): 6.25 µg/mL (≈ 17.7 µM) | MIC (Staphylococcus aureus [9]): 6.25 µg/mL (≈ 17.7 µM)
